Activity calls are given as the source filed them. The rule behind the calls is not given here.

In test [1] the target is Hepatocyte growth factor receptor (Homo sapiens) (UniProt P08581). Kind of test: Inhibition of MET (unknown origin) at 1 uM by KINOMEscanning assay relative to control; values are per cent of control.
Test [2] deals with RAC-alpha serine/threonine-protein kinase (Homo sapiens) (UniProt P31749). Kind of test: Inhibition of AKT1 (unknown origin) at 1 uM by KINOMEscanning assay relative to control; values are per cent of control.
Test [3] concerns the target Serine/threonine-protein kinase B-raf (Homo sapiens) (UniProt P15056). Kind of test: Inhibition of BRAF (unknown origin) at 1 uM by KINOMEscanning assay relative to control; values are per cent of control.
The target of test [4] is Epidermal growth factor receptor (Homo sapiens) (UniProt P00533). The test can be described thus: Inhibition of EGFR (unknown origin) at 1 uM by KINOMEscanning assay relative to control; values are per cent of control.
Test [5] concerns the target Vascular endothelial growth factor receptor 1 (Homo sapiens) (UniProt P17948). The test can be described thus: Inhibition of FLT1 (unknown origin) at 1 uM by KINOMEscanning assay relative to control; values are per cent of control.
Test [6] concerns the target Receptor-type tyrosine-protein kinase FLT3 (Homo sapiens) (UniProt P36888). The test can be described thus: Inhibition of FLT3 (unknown origin) at 1 uM by KINOMEscanning assay relative to control; values are per cent of control.
Test [7] has as its target Tyrosine-protein kinase JAK1 (Homo sapiens) (UniProt P23458). Kind of test: Inhibition of JAK1 (unknown origin) at 1 uM by KINOMEscanning assay relative to control; values are per cent of control.
For test [8], the target named is Tyrosine-protein kinase JAK2 (Homo sapiens) (UniProt O60674). Kind of test: Inhibition of JAK2 (unknown origin) at 1 uM by KINOMEscanning assay relative to control; values are per cent of control.
For test [9], the target named is High affinity nerve growth factor receptor (Homo sapiens) (UniProt P04629). Kind of test: Inhibition of TRKA (unknown origin) at 1 uM by KINOMEscanning assay relative to control; values are per cent of control.
In test [10] the target is BDNF/NT-3 growth factors receptor (Homo sapiens) (UniProt Q16620). Kind of test: Inhibition of TRKB (unknown origin) at 1 uM by KINOMEscanning assay relative to control; values are per cent of control.
Test [11] deals with Fibroblast growth factor receptor 2 (Homo sapiens) (UniProt P21802). Kind of test: Inhibition of FGFR2 (unknown origin) at 1 uM by KINOMEscanning assay relative to control; values are per cent of control.
Test [12] concerns the target T1, Mast/stem cell growth factor receptor Kit (Homo sapiens, UniProt P10721). The test can be described thus: Inhibition of c-KIT (unknown origin) at 1 uM by KINOMEscanning assay relative to control; values are per cent of control.
Test [13] has as its target Rho-associated protein kinase 1 (Homo sapiens) (UniProt Q13464). Kind of test: Inhibition of ROCK1 (unknown origin) at 1 uM by KINOMEscanning assay relative to control; values are per cent of control.
For test [14], the target named is Glycogen synthase kinase-3 beta (Homo sapiens) (UniProt P49841). Kind of test: Inhibition of GSK3beta (unknown origin) at 1 uM by KINOMEscanning assay relative to control; values are per cent of control.
The target of test [15] is T2, Inhibitor of nuclear factor kappa-B kinase subunit alpha (Homo sapiens) (UniProt O15111).
T2 sequence (whole entry): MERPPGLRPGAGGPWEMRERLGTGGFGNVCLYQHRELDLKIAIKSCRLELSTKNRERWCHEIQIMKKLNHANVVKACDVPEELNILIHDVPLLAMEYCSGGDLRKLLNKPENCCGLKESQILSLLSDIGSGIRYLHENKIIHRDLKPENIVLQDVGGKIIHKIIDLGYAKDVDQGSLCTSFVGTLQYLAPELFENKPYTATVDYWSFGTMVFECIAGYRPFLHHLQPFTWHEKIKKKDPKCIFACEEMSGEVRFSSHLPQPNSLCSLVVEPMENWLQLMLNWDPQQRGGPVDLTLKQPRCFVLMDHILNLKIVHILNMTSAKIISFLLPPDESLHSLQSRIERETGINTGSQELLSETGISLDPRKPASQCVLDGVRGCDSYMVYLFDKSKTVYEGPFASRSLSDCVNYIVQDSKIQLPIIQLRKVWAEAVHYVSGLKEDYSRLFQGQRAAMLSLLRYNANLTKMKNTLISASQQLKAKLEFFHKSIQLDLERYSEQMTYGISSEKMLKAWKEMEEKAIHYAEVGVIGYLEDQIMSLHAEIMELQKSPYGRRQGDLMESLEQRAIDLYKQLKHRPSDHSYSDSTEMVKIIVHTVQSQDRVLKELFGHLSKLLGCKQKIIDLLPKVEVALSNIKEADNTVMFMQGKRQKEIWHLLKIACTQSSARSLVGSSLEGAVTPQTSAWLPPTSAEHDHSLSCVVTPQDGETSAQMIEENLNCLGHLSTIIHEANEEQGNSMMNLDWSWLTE
Kind of test: Inhibition of IKKalpha (unknown origin) at 1 uM by KINOMEscanning assay relative to control; values are per cent of control.

Test [16] has as its target Phosphatidylinositol 4,5-bisphosphate 3-kinase catalytic subunit beta isoform (Homo sapiens) (UniProt P42338). Kind of test: Inhibition of PI3Kbeta (unknown origin) at 1 uM by KINOMEscanning assay relative to control; values are per cent of control.
Test [17] addresses Phosphatidylinositol 4,5-bisphosphate 3-kinase catalytic subunit alpha isoform (Homo sapiens, UniProt P42336). Kind of test: Inhibition of PI3Kalpha (unknown origin) at 1 uM by KINOMEscanning assay relative to control; values are per cent of control.
In test [18] the target is 5'-AMP-activated protein kinase catalytic subunit alpha-1 (Homo sapiens) (UniProt Q13131). The test can be described thus: Inhibition of AMPKalpha 1 (unknown origin) at 1 uM by KINOMEscanning assay relative to control; values are per cent of control.
Sequence of 5'-AMP-activated protein kinase catalytic subunit alpha-1 (Homo sapiens) (Q13131 whole entry, looked up): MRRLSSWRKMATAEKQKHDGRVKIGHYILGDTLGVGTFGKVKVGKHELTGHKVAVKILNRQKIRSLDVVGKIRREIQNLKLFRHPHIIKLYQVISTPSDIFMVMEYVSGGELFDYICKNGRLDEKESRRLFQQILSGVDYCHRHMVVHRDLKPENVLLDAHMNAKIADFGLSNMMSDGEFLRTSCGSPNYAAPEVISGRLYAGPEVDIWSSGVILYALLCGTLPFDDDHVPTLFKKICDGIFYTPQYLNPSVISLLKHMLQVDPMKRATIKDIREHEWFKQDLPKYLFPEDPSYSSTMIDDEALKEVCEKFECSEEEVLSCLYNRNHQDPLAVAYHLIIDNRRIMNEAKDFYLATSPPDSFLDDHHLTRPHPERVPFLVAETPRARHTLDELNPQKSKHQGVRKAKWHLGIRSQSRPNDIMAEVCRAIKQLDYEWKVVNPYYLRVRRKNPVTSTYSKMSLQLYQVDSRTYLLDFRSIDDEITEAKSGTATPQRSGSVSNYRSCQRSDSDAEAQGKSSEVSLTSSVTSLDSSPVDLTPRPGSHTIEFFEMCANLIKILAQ
In test [19] the target is 5'-AMP-activated protein kinase catalytic subunit alpha-2 (Homo sapiens) (UniProt P54646). The test can be described thus: Inhibition of AMPKalpha 2 (unknown origin) at 1 uM by KINOMEscanning assay relative to control; values are per cent of control.
The target in test [20] is T1, Mast/stem cell growth factor receptor Kit. The note with it: 5 uM.
Description: Inhibition of c-KIT in imatinib-resistant human HMC-1.2 cells assessed as suppression of Akt phosphorylation at 5 uM after 1 hr by Western immunoblotting analysis
Test [21] has the same target. The note with it: 5 uM. The source holds these as a separate data set.
Description: Inhibition of c-KIT in imatinib-resistant human HMC-1.2 cells assessed as suppression of Erk phosphorylation at 5 uM after 1 hr by Western immunoblotting analysis

Sequence of Serine/threonine-protein kinase B-raf (Homo sapiens) (P15056 whole entry): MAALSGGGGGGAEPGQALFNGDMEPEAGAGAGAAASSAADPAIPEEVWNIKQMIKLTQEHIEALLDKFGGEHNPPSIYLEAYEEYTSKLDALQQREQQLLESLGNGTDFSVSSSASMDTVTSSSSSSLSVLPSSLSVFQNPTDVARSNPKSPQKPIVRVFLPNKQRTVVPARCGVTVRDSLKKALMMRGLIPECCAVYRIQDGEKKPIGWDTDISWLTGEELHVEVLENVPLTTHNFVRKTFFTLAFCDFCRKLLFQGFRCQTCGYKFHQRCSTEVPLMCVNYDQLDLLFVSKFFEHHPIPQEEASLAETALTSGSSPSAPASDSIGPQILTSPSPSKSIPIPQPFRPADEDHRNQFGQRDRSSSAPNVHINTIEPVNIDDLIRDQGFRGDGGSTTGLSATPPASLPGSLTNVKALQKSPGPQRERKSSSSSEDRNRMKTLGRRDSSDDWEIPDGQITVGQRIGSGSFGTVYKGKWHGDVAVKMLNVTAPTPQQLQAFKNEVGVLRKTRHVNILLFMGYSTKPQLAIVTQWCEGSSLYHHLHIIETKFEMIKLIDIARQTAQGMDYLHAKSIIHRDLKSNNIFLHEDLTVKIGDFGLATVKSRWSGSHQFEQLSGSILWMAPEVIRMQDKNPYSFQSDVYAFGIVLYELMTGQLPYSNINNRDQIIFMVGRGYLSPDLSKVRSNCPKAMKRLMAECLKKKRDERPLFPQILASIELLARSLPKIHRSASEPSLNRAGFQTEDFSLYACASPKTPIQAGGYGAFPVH
Sequence of Rho-associated protein kinase 1 (Homo sapiens) (Q13464 2-1354 limits assumed): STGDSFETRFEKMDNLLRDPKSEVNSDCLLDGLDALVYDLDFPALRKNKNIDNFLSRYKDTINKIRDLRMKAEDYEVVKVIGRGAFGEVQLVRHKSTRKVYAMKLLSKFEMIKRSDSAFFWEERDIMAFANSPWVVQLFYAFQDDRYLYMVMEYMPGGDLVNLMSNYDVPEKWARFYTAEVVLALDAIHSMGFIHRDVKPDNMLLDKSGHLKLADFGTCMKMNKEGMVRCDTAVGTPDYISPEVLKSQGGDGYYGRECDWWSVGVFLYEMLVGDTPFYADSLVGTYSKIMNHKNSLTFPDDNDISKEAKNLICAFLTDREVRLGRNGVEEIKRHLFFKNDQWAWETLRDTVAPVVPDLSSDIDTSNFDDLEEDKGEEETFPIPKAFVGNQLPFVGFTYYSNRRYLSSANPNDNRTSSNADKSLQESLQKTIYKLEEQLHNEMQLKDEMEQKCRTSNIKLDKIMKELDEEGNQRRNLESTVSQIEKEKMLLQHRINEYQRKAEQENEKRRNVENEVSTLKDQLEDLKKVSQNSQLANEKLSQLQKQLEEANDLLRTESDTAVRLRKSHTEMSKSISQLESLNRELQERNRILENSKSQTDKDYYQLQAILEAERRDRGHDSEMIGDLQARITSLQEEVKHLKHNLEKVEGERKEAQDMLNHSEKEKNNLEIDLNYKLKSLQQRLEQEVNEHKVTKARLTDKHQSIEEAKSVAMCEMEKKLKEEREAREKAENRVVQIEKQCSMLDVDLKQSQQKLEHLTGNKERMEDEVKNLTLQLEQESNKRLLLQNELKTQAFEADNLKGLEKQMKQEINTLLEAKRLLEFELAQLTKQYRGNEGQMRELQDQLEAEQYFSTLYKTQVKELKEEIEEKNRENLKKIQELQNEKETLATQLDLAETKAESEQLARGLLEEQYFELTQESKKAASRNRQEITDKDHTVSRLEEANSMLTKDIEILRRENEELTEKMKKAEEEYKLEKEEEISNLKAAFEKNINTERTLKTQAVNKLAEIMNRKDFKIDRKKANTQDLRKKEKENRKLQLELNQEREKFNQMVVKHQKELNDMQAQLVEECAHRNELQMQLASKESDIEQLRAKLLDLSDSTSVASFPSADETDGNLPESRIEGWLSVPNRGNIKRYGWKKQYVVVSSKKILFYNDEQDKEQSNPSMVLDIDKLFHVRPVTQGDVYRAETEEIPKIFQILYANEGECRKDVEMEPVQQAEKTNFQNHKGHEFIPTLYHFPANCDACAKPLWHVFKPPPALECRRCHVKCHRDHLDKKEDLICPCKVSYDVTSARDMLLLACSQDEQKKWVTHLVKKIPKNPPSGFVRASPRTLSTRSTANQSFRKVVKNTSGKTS
T1 sequence (P10721 whole entry): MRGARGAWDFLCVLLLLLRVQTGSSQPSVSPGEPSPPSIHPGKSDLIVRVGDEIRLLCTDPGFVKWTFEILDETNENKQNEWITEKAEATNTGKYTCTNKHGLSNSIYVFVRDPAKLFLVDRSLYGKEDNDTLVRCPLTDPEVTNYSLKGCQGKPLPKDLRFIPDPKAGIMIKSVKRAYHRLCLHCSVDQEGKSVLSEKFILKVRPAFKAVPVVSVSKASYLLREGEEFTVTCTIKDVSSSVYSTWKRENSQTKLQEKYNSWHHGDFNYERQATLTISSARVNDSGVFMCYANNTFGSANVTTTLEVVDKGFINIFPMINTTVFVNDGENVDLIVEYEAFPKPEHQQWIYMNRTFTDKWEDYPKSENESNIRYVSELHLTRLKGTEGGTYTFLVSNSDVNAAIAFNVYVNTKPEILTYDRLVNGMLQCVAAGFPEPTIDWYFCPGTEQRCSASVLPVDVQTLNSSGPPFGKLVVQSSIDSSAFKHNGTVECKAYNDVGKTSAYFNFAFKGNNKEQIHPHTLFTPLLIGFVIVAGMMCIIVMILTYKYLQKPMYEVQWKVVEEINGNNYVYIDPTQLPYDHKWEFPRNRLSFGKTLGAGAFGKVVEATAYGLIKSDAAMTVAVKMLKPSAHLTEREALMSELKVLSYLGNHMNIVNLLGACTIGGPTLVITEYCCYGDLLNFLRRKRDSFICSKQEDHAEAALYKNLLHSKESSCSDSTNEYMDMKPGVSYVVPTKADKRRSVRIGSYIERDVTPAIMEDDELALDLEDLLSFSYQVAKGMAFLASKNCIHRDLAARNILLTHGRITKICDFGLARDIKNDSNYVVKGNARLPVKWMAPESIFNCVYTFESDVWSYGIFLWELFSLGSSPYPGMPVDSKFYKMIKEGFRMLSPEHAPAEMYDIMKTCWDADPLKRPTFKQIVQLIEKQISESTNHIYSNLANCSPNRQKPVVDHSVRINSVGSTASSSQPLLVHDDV
Sequence of Hepatocyte growth factor receptor (Homo sapiens) (P08581 whole entry): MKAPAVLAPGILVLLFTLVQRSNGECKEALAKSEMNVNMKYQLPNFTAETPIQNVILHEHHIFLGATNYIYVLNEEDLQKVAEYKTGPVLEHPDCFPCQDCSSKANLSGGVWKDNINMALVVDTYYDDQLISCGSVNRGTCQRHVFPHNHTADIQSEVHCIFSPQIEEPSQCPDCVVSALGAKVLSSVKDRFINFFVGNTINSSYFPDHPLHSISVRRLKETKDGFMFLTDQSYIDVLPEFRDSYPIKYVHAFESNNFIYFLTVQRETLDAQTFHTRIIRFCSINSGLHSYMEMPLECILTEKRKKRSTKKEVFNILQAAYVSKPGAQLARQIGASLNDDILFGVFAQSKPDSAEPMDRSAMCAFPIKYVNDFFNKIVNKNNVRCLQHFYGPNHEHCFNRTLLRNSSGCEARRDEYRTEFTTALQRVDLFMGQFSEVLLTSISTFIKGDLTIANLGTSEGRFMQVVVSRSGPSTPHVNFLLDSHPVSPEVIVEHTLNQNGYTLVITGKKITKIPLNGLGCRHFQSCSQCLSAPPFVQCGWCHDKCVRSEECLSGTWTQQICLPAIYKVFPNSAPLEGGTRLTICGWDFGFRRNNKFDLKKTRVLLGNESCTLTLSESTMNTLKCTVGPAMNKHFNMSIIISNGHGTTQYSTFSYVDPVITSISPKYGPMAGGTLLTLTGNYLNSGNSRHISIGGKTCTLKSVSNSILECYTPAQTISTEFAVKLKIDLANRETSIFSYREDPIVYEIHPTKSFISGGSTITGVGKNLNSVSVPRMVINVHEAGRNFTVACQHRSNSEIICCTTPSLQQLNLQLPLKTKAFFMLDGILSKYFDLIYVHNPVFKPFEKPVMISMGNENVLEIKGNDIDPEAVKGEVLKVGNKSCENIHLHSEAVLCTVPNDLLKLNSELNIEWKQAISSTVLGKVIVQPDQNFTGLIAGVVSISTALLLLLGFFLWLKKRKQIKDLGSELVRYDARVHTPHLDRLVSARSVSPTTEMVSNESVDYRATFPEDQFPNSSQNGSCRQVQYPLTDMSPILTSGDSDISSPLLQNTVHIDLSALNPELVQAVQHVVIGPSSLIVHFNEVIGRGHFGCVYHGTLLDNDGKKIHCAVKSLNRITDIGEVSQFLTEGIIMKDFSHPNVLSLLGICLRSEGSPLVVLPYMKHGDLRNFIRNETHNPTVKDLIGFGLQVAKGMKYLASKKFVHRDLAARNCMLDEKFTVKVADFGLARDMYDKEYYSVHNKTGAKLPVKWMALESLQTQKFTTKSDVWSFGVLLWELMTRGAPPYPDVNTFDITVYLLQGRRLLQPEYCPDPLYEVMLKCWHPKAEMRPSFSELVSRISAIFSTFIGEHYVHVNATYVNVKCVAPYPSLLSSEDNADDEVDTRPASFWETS

Take `COc1ccc(-c2c[nH]c3ncc(-c4ccc(C(=O)N5CCOCC5)c(N)c4)cc23)cc1OC`: the residual activity in test [1] is 54%; in test [2] it was 100%; in test [3], 78%; in test [4], 73%; in test [5], 56%; in [6], 7%. Further, the residual activity was 100% in [7]; 3.2% in [8]; 11% in test [9]; 17% in test [10]; 89% in test [11]; 51% in test [12]. Further, the residual activity is 16% in [13]; 63% in test [14]; 2.2% in test [15]; 95% in [16]; 100% in [17]; 84% in [18]. The compound also came in with a residual activity in test [19] of 82%.

Consider `COc1ccc(-c2cnc3[nH]cc(-c4ccc(OC)c(OC)c4)c3c2)cc1OC`, for which the inhibition entry in [20] and in test [21] was “Active” throughout. For the same compound, the residual activity in test [1] was 34%; in test [2], 100%; in test [3], 81%; in [4], 70%; in test [5], 81%; in test [6], 2.2%. The residual activity in [7] amounted to 100%; in [8] it was 49%; in [9], 26%; in test [10], 36%; in [11], 100%; in [12], 0.8%. Moreover, the residual activity worked out at 33% in test [13]; 94% in [14]; 10% in test [15]; 100% in test [16]; 66% in test [17]; 100% in [18]. The residual activity in [19] stood at 81%.

On to `COc1cc(-c2c[nH]c3ncc(-c4cccc(N)c4)cc23)cc(OC)c1OC`, for which the inhibition result in test [20] and in test [21] was “Active” throughout. The residual activity in [1] came out at 35%; in test [2] it was 87%; in test [3] it was 28%; in test [4] it was 70%; in [5] it was 36%; in test [6] it was 25%. The residual activity was 71% in test [7]; 78% in [8]; 83% in test [9]; 68% in test [10]; 100% in test [11]; 9.8% in test [12]. The residual activity in test [13] turned out to be 94%; in test [14], 64%; in test [15] it was 46%; in [16], 87%; in test [17], 71%; in [18], 90%. The residual activity in test [19] stood at 77%.

For `COc1ccc(-c2c[nH]c3ncc(-c4cc(OC)c(OC)c(OC)c4)cc23)cc1OC`, the inhibition result in test [20] and in test [21] was “Active” throughout. Besides, the residual activity was determined as 54% in [1]; 98% in test [2]; 78% in test [3]; 68% in test [4]; 75% in [5]; 1.6% in test [6]. For the same compound, the residual activity was determined as 92% in [7]; 48% in test [8]; 46% in test [9]; 45% in test [10]; 100% in [11]; 19% in test [12]. For the same compound, the residual activity in [13] came out at 66%; in test [14], 64%; in [15] it was 70%; in test [16], 94%; in [17] it was 75%; in [18] it was 95%. In [19], this compound returned a residual activity of 86%.

Regarding `COc1ccc(-c2cnc3[nH]cc(-c4ccc(OC)c(OC)c4)c3c2)cc1N`, the inhibition entry in test [20] and in test [21] was “Active” each time. Further, the residual activity in test [1] amounted to 47%; in test [2], 92%; in test [3], 83%; in [4] it was 43%; in [5] it was 43%; in test [6] it was 18%. For the same compound, the residual activity was 93% in test [7]; 46% in [8]; 11% in test [9]; 16% in [10]; 100% in test [11]; 37% in [12]. For the same compound, the residual activity turned out to be 16% in test [13]; 87% in [14]; 26% in test [15]; 93% in [16]; 71% in [17]; 98% in test [18]. The same compound returned a residual activity in test [19] of 87%.

The values above are taken from ChEMBL document CHEMBL3352338, “Development and biological evaluation of potent and selective c-KIT(D816V) inhibitors” (J Med Chem, 2014).
